# Columns and labels:
# [1] = biological target: PancAce (PANcACe), PanZ(R69)-GA-cpGFP-GA-(E70)PanZ, SEQ ID NO: 5; E. coli PanZ with cpGFP insertion (Escherichia coli, UniProt P37613, INS69[…]); experiment: Fluorescence titration of PancAce with acetyl-CoA, CoA and propionyl-CoA; type: binding
# Experimental: Acetyl-CoA and CoA Titration and Spectrum Scans. Assays were done in 384 well plates with […] final well volume. All sensors and control proteins were diluted to 6 μM in protein storage buffer. Acetyl-CoA and CoA were dissolved in water at a concentration of 60 μM then serial diluted to 30 μM, 15 μM, 6 μM, 3 μM, 0.6 μM, 0.06 μM, and 0.006 μM. Wells were set up in triplicate with 14 μL water, 6 μL assay buffer, and 5 μL sensor. 5 μL of an acetyl-CoA stock or water were added to 1 μM sensor before reading. For Titration curves, plates were read at excitation 485 nm and emission 514 nm. For excitation scans plates were excited from 400 nm to 500 nm at 1 nm increments and emissions were read at […]. For emission scans plates were excited at 485 nm, 427 nm, or 405 nm and emissions were read from 500 nm to 575 nm in 1 nm increments. Triplicates were averaged and plotted for scans and percent difference between no acetyl-CoA and acetyl-CoA wells were calculated for titrations.
# Titrations of acetyl-CoA and CoA with PANcACe and cpGFP alone were performed (FIG. 9). […] Since the insertion site of cpGFP is very close to the acetyl-CoA binding site, this effect was not surprising. […] Further, the selectivity of PANcACe for short-chain acyl-CoAs was tested (FIG. 11). […] A propionyl-CoA titration confirmed this apparent affinity difference (FIG. 12). Since saturation was not achieved up to 10 mM propionyl-CoA, it was assumed that the same maximal sensor response would be achieved for propionyl-CoA as for acetyl-CoA.
# [2] = biological target: PancAce (PANcACe), PanZ(R69)-GA-cpGFP-GA-(E70)PanZ, SEQ ID NO: 5 (Escherichia coli, UniProt P37613, INS69[…]); experiment: Acyl-CoA screen, fluorescence response to 1 mM acyl-CoA; type: biochemical, E. coli; settings: FIG. 11, n=3
# Experimental: Acyl-CoA Screen. Assays were done in 384 well plates with 30 μL final volume. All sensors and control proteins were diluted to 6 μM in protein storage buffer. CoA, acetyl-CoA, propionyl-CoA, butyryl-CoA, malonyl-CoA, and succinyl-CoA were dissolved in water at a concentration of 6 mM. Wells were set up in triplicate with 14 μL water, 6 μL assay buffer, and 5 μL sensor. 5 μL of an acyl-CoA or water were added to 1 μM sensor before reading. Plates were read at excitation 485 nm and emission 514 nm. Triplicates were averaged and percent difference between acyl-CoAs and water were calculated.
# [3] = system: E. coli (Rosetta DE3 cells)
# Experimental: Plate Reader Refeeding. All assays were done with the BioTek Synergy™ Plate Reader with injectors. All sensors and control proteins were expressed in Rosetta (DE3) cells. PanZ was used as a non-fluorescent control, cpGFP was used as a fluorescent control, and PANcACe was the experimental. Reads were done with excitation 405 nm and 485 nm and emission at 514 nm. Cultures were grown in LB with kanamycin overnight at 37° C. then used to induce new cultures. Cells were grown at 37° C. to an OD600 of 0.6 then induced with 0.5 mM IPTG and grown overnight at 18° C. Cultures were split into 2, 600 μL aliquots and spun at 4000 rpm for 5 minutes.
# Glucose Starvation and Refeeding. The supernatant was discarded and pellets were resuspended in 600 μL either starvation buffer (100 mM NaPO4, 2 mM MgCl2, 15 mM (NH4)2SO4+0 mM glucose) or refed buffer (100 mM NaPO4, 2 mM MgCl2, 15 mM (NH4)2SO4+28 mM glucose). 85 μL was added to 3 wells of a 96 well plate for each sample. […] Plates were read for 10 minutes every 30 seconds with 10 seconds of shaking between reads. […] Plates were read for 60 minutes every 30 seconds with 10 seconds of shaking between reads.
# 2-Deoxyglucose Starvation and Refeeding. […] Plates were read for 10 minutes every 30 seconds with 10 seconds of shaking between reads. […] Plates were read for 60 minutes every 30 seconds with 10 seconds of shaking between reads.
# [4] = biological target: PanZ(R69)-GA-cpGFP-GA-(E70)PanZ (PancAce), SEQ ID NO: 5 (Escherichia coli, UniProt P37613, INS69[…]); experiment: Linker screen, fluorescence response to 1 mM acetyl-CoA; type: biochemical, E. coli
# Experimental: Linker Length Screen. cpGFP (HTSD1.00) was inserted into 6× histidine tagged PanZ (HTSD1.10) after amino acid R69 with all 16 possible combinations of N- and C-terminal linkers with amino acid sequences GAS, GA, G, no linker using NEBuilder® HiFi DNA Assembly Master Mix (NEB) (HTSD8.00-8.15).
# Position and Linker Screen. Assays were done in 96 well plates with 100 μL final well volumes. All sensors and control proteins were diluted to 10 μM in protein storage buffer (50 mM Tris pH 7.5, 150 mM NaCl, 10% glycerol). Acetyl-CoA was dissolved in water at a concentration of 10 mM. A 5× assay buffer was used ([…] pH 7.5, 750 mM NaCl). Wells were set up in triplicate with 60 μL water, 20 μL reaction buffer, and 10 μL sensor. Then either 10 μL of water or 10 μL of acetyl-CoA were added to 1 μM sensor before reading. […] Triplicates were averaged and percent difference between no acetyl-CoA and acetyl-CoA wells were calculated.
# [5] = biological target: E. coli PanZ (PanZ-CFP fusion protein), SEQ ID NO: 1 (Escherichia coli, UniProt P37613); experiment: Surface plasmon resonance binding to PanZ-CFP; settings: SPR
# Experimental: Surface Plasmon Resonance. Acetyl-CoA and CoA binding to PanZ-CFP were analyzed via SPR using a MASS-1 instrument (Bruker Daltonics, Billerica, MA). Independent experiments were performed using freshly prepared PanZ-CFP, Acetyl-CoA, and CoA stocks on two separate days (surfaces 1 & 2). HLC200 μM sensor surfaces (Xantec Bioanalytics, Düsseldorf, Germany) were activated with EDC/NHS, and then 250 nM PanZ-CFP ligand was captured on the sensor “Spot B” at 10 μL/minute at 2020 RU (surface 1) and 2360 RU (surface 2). The surface was then blocked with […]. The experimental running buffer was 50 mM Tris pH 7.5, 150 mM NaCl, 0.05% Tween-20 for surface 1 replicates and 200 mM Tris pH 7.5, 150 mM NaCl, 0.05% Tween-20 for surface 2 replicates. Experiments were performed at room temperature with a flowrate of 30 μL/minute. A three-fold dilution series (81-0.33 μM) with 1 minute association and 2 minutes dissociation was run in multiple replicates (at least two for each analyte on each surface). Data were double blanked by subtracting the blank in-line control surface (Spot A) and buffer reference injections. Kinetic binding data were globally fit to the Langmuir model for 1:1 binding for each replicate of concentration series using the Sierra Analyser software (version 3.4.1, Bruker Daltonics, Billerica, MA). […]
smiles,measurement,setting,value
CCC(=O)SCCNC(=O)CCNC(=O)[C@H](O)C(C)(C)COP(=O)(O)OP(=O)(O)OC[C@H]1O[C@@H](n2cnc3c(N)ncnc32)[C@H](O)[C@@H]1OP(=O)(O)O [propionyl-CoA],fold lower affinity for propionyl-CoA compared to acetyl-CoA,[1]; from fitted Kd values,2.4 fold
same,Kd (estimated),"[1]; saturation not achieved up to 10 mM, fit assumes same maximal sensor response as for acetyl-CoA",626000 ± 75000 nM
same,sensor fluorescence response,[2],some response
"O=CC[C@@H](O)[C@H](O)[C@H](O)CO [2-DG, 2-deoxyglucose]",recovery of acetyl-CoA levels (sensor response) upon refeeding,"[3]; PancAce-expressing cells deprived of glucose 3 hours with 28 mM 2-DG, refed 28 mM glucose, monitored 1 hour",lower recovery of acetyl-CoA levels upon refeeding
CC(=O)O [acetate],duration of increase in PancAce signal upon feeding of starved cells,"[3]; 280 μM acetate, pre-starved PancAce-expressing cells",about 30 minutes
"CC(C)(COP(=O)(O)OP(=O)(O)OC[C@H]1O[C@@H](n2cnc3c(N)ncnc32)[C@H](O)[C@@H]1OP(=O)(O)O)[C@@H](O)C(=O)NCCC(=O)NCCS [CoA, coenzyme A]",sensor response,"[1]; FIG. 9, acetyl-CoA or CoA titration",the sensor responds only to acetyl-CoA and not CoA
same,CoA concentration required to elicit the same sensor response as 100 μM acetyl-CoA,"[1]; interpolation, saturation not achieved for CoA",10 mM
"CC(=O)SCCNC(=O)CCNC(=O)[C@H](O)C(C)(C)COP(=O)(O)OP(=O)(O)OC[C@H]1O[C@@H](n2cnc3c(N)ncnc32)[C@H](O)[C@@H]1OP(=O)(O)O [acetyl-CoA, acetyl coenzyme A]",lower end of detectable acetyl-CoA concentration range,[1]; FIG. 9,about 10 UM
same,upper end of detectable acetyl-CoA concentration range,[1]; FIG. 9,about 2 mM
same,fold higher affinity for acetyl-CoA compared to propionyl-CoA,"[1]; FIG. 12, λex=485, λem=514 nm, n=3-5",approximately 2.5 fold
same,fold lower affinity of PANcACe for acetyl-CoA compared to PanZ,"[1]; fluorescence Kd,app vs SPR Kd",about 150 fold
same,maximum fluorescence response at saturating acetyl-CoA,"[1]; λex=485, λem=514 nm",~2 fold
same,fold-change in fluorescence emission ((F1−F0)/F0),"[4]; 1 mM acetyl-CoA, N-GA/C-GA linkers, λex=485, λem=514 nm",about 0.6 fold
same,response of GA/GA linker sensor relative to original AS/AS linker,"[4]; acetyl-CoA, FIG. 6",about 2.5 fold
same,fold higher affinity for acetyl-CoA versus CoA,[5],7 fold
same,Kd,"[5]; 1:1 Langmuir fit, average ± standard error, room temperature, pH 7.5",1700 ± 200 nM
